Measurements reported in ChEMBL document CHEMBL5500370, “Discovery of potent and novel dual NAMPT/BRD4 inhibitors for efficient treatment of hepatocellular carcinoma” (Eur J Med Chem, 2024).
Active and inactive are the calls of the source. No cut-off for these calls is given here.

How the values were obtained:
Hep 3B2 [1] = experiment: Induction of apoptosis in human Hep3B cells assessed as necrotic cells at 5 uM measured after 72 hrs by Annexin V-FITC/PI staining based flow cytometry (reference value: 2.74 %); type: functional
[2] = target: T1, Nicotinamide phosphoribosyltransferase (Homo sapiens, UniProt P43490); experiment: Inhibition of NAMPT in human HCCLM3 cells assessed as decrease in NAD+ level at 10 uM measured after 72 hrs by WST-8 assay; type: cell-based
Target sequence in this assay (P43490 whole entry, looked up): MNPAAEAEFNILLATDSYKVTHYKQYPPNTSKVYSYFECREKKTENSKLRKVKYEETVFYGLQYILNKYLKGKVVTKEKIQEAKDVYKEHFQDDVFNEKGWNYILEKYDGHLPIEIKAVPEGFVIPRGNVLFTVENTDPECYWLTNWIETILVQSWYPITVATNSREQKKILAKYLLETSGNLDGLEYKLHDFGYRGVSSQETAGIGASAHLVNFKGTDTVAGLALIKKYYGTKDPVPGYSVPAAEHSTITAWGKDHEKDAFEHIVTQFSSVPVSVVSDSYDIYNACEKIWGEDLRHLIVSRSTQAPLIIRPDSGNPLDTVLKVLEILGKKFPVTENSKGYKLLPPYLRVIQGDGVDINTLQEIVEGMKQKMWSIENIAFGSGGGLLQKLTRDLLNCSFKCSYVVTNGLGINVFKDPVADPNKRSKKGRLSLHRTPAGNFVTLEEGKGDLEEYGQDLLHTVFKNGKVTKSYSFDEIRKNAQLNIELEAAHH

HCCLM3 [3] = experiment: cells; details: Homo sapiens, HCCLM3, 120 h
Huh-7 = experiment: cells; details: Homo sapiens, Huh-7, 120 h
[4] = target: Bromodomain-containing protein 3 (Homo sapiens, UniProt Q15059); experiment: Inhibition of BRD3 BD1/2 (unknown origin) incubated for 120 mins by TR-FRET assay
Chain of Bromodomain-containing protein 3 (Q15059 whole entry): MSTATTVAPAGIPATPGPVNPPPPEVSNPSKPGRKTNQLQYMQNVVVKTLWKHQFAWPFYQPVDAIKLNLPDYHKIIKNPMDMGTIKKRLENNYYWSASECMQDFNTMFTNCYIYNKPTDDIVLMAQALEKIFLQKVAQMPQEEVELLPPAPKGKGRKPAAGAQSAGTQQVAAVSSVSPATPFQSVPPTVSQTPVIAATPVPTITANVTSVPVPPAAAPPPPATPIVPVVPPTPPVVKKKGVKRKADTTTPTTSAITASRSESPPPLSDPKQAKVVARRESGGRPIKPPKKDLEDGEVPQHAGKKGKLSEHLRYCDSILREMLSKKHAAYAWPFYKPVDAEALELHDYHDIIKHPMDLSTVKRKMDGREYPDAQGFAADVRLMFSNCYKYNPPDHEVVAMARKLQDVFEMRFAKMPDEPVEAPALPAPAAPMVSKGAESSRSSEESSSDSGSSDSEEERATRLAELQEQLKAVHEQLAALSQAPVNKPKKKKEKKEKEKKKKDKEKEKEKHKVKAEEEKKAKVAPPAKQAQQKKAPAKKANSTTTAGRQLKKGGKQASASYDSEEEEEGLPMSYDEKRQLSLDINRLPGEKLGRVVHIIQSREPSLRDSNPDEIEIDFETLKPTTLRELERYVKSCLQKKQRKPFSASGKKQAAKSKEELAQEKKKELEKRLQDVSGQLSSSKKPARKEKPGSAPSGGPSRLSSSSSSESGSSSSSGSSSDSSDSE

[5] = target: Bromodomain testis-specific protein (Homo sapiens, UniProt Q58F21); experiment: Inhibition of BRDT BD1 (unknown origin) incubated for 120 mins by TR-FRET assay
Hep 3B2 [6] = experiment: Antiproliferative activity against NAMN-treated human Hep3B cells incubated for 120 hrs by MTT assay; type: functional, cell-based
HCCLM3 [7] = experiment: In vivo inhibition of NAMPT in human HCCLM3 cells xenografted in BALB/c nude mouse assessed as reduction in NAD+ level in tumor tissue administered intraperitoneally for 27 days; type: functional, organism-based; details: dose 40-80 mg/kg, route ip, time 27.0 day
[8] = Antiproliferative activity against human LX2 cells incubated for 120 hrs by MTT assay; type: toxicity, cell-based; details: LX-2 cells
HCCLM3 [9] = experiment: Antiproliferative activity against NMN-treated human HCCLM3 cells incubated for 120 hrs by MTT assay; type: functional, cell-based
HCCLM3 [10] = experiment: Antitumor activity against human HCCLM3 cells xenografted in BALB/c nude mouse at 40 mg/kg, ip for 27 days relative to control; type: functional; details: HCCLM3, 648 h, time 27 day, read-out: TGI
Hep 3B2 [11] = experiment: Induction of cell cycle arrest at G2/M phase in human Hep3B cells at 5 uM measured after 72 hrs by PI/RNase staining based flow cytometry (reference value: 11.37 %); type: functional
Hep 3B2 [12] = experiment: Induction of cell cycle arrest at S phase in human Hep3B cells at 1 uM measured after 72 hrs by PI/RNase staining based flow cytometry (reference value: 31.90 %); type: functional
[13] = target: T1, Nicotinamide phosphoribosyltransferase; experiment: Inhibition of recombinant NAMPT (unknown origin) by fluorescence based assay
Target sequence in this assay (P43490 whole entry): as the sequence (P43490 whole entry, looked up) above

For `Cc1sc2c(c1C)C(c1ccc(Cl)cc1)=N[C@@H](CC(=O)NCCCNC(=O)/C=C/c1cccnc1)c1nnc(C)n1-2`, the Activity (Hep 3B2 [1]) was 4.6%, the inhibition [2] was “Active” and the IC50 (HCCLM3 [3]) was 5440 nM. It also gave an IC50 (Huh-7) of 6490 nM, an IC50 [4] of 122 nM and an IC50 [5] of 354 nM. For the same compound, the Activity (Hep 3B2 [6]) was “inactive”, the Activity (HCCLM3 [7]) was “Active” and the IC50 at 120 h [8] was 9510 nM. For the same compound, the Activity (HCCLM3 [9]) was “inactive”, the inhibition in vivo at 40 mg/kg (HCCLM3 [10]) was 37.2% and the Activity (Hep 3B2 [11]) was 8.35%. It also gave an Activity (Hep 3B2 [12]) of 24.18% and an IC50 [13] of 35 nM.
